The target of assay [1] is Beta-secretase 1 (Homo sapiens, UniProt P56817). Briefly: Inhibition of recombinant BACE1 (unknown origin).
In assay [2] the target is T1, Beta-secretase 2 (Homo sapiens, UniProt Q9Y5Z0).
T1 sequence (Q9Y5Z0 whole entry): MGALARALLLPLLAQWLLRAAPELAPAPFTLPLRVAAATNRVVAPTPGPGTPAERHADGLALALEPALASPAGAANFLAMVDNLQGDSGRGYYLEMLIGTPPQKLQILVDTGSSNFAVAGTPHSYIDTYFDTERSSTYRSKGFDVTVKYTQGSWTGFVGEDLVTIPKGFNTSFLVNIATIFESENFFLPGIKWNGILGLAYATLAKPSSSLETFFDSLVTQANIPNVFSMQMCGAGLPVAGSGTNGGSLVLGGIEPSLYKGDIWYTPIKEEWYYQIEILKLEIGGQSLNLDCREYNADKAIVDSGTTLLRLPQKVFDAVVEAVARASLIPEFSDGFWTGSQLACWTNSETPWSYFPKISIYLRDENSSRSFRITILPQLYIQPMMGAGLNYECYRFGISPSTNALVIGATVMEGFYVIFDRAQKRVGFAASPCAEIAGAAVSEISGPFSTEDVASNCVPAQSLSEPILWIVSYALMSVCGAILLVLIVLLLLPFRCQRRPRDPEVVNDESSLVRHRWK
As to the kind of experiment: Inhibition of memapsin 1 (unknown origin).

For assay [3], the target named is Cathepsin D (Homo sapiens, UniProt P07339). Briefly: Inhibition of Cathepsin D (unknown origin).
Cathepsin D, sequence (P07339 65-162 limits assumed): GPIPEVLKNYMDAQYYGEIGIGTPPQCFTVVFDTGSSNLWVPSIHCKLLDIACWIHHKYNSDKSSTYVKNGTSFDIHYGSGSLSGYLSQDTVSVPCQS
Cathepsin D, sequence (P07339 169-412 limits assumed): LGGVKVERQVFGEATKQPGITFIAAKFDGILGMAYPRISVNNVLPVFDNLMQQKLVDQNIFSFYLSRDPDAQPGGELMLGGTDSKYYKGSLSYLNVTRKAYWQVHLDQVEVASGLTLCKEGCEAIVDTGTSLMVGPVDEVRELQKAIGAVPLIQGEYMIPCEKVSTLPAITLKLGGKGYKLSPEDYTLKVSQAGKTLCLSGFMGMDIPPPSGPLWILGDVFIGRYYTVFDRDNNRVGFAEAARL

The structures appear in SMILES notation.

Beta-secretase 1, sequence (P56817 whole entry): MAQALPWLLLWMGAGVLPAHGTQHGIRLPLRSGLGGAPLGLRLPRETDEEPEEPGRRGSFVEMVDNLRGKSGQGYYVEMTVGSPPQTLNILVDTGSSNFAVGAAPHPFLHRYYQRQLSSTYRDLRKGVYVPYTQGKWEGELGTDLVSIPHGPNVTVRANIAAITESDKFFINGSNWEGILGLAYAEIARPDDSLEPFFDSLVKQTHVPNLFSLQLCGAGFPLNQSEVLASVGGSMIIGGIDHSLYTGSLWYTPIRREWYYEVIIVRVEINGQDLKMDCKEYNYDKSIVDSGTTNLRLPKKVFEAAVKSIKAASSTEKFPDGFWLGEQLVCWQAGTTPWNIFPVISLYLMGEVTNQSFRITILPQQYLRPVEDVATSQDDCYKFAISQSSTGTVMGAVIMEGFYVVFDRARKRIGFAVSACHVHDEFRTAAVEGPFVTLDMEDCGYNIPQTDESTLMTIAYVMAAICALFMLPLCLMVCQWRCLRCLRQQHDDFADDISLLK

One may read the Ki as the dissociation constant of the complex between target and ligand, obtained from inhibition or displacement. For `CC[C@@H](Cn1nc(C)cc1C)C(=O)N[C@@H](CNC(=O)OC(C)(C)C)C(=O)N[C@@H](CC(C)C)[C@@H](O)C[C@@H](C)C(=O)N[C@H](C(=O)NCC(C)C)C(C)C`, in assay [1], the Ki is 63.1 nM.

On to `Cc1cc(C)n(C[C@@H](C(=O)N[C@@H](CNC(=O)OC(C)(C)C)C(=O)N[C@@H](CC(C)C)[C@@H](O)C[C@@H](C)C(=O)N[C@H](C(=O)NCC(C)C)C(C)C)C(C)C)n1`, for which, in assay [1], the Ki amounted to 471 nM.

With `Cc1csc(C[C@@H](C(=O)N[C@@H](CNC(=O)OC(C)(C)C)C(=O)N[C@@H](CC(C)C)[C@@H](O)C[C@@H](C)C(=O)N[C@H](C(=O)NCC(C)C)C(C)C)C(C)C)n1`, the Ki in assay [1] turned out to be 28.9 nM.

For `CC[C@@H](Cc1csc(C)n1)C(=O)N[C@@H](CNC(=O)OC(C)(C)C)C(=O)N[C@@H](CC(C)C)[C@@H](O)C[C@@H](C)C(=O)N[C@H](C(=O)NCC(C)C)C(C)C`, the Ki in assay [1] stood at 16.8 nM.

With `Cc1cc(C)n(C[C@H](CC(C)C)C(=O)N[C@@H](CNC(=O)OC(C)(C)C)C(=O)N[C@@H](CC(C)C)[C@@H](O)C[C@@H](C)C(=O)N[C@H](C(=O)NCC(C)C)C(C)C)n1`, the Ki in assay [1] was found to be 148 nM.

`CSC[C@H](NC(=O)[C@@H](C)Cn1nc(C)cc1C)C(=O)N[C@@H](CC(C)C)[C@@H](O)C[C@@H](C)C(=O)N[C@H](C(=O)NCC(C)C)C(C)C`: the Ki in assay [1] amounted to 64.2 nM.

As to `Cc1nc(C[C@H](C)C(=O)N[C@@H](CNC(=O)OC(C)(C)C)C(=O)N[C@@H](CC(C)C)[C@@H](O)C[C@@H](C)C(=O)N[C@H](C(=O)NCC(C)C)C(C)C)cs1`, in assay [1], the Ki amounted to 31.9 nM.

With `Cc1ccn(C[C@H](C)C(=O)N[C@@H](CNC(=O)OC(C)(C)C)C(=O)N[C@@H](CC(C)C)[C@@H](O)C[C@@H](C)C(=O)N[C@H](C(=O)NCC(C)C)C(C)C)n1`, in assay [1], the Ki was determined as 201 nM.

Regarding `Cc1csc(C[C@H](C)C(=O)N[C@@H](CNC(=O)OC(C)(C)C)C(=O)N[C@@H](CC(C)C)[C@@H](O)C[C@@H](C)C(=O)N[C@H](C(=O)NCC(C)C)C(C)C)n1`, the figures for the Ki in assay [2], in assay [3] and in assay [1] were 71 nM, 1.25 nM and 0.25 nM, respectively.

Turning to `CC[C@@H](Cc1nc(C)cs1)C(=O)N[C@@H](CNC(=O)OC(C)(C)C)C(=O)N[C@@H](CC(C)C)[C@@H](O)C[C@@H](C)C(=O)N[C@H](C(=O)NCC(C)C)C(C)C`, in assay [1], the Ki is 10.8 nM.

Consider `Cc1cc(C)n(C[C@H](C)C(=O)N[C@@H](CS(C)(=O)=O)C(=O)N[C@@H](CC(C)C)[C@@H](O)C[C@@H](C)C(=O)N[C@H](C(=O)NCC(C)C)C(C)C)n1`, for which the Ki in assay [1] amounted to 192 nM.

(Values after ChEMBL document CHEMBL3351680, “Structure-based design, synthesis and biological evaluation of novel β-secretase inhibitors containing a pyrazole or thiazole moiety as the P3 ligand” (Bioorg Med Chem Lett, 2015).)
